Source: patent US20240360148A1 (SUVALENT THERAPEUTICS, INC., priority 2021, published 2024)
pIC50: −log10 of the molar value.

Legend:
SAE1 [1] = biological target: SAE1 (Homo sapiens (Human), UniProt Q9UBT2); assay: SAE High Throughput Biochemical Assay (HTRF), 15 min preincubation; conditions: SAE1 12.5 nM, ATP 100 μM
Procedure, shortened: (§1)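 HTRF detection of SUMO transfer from SUMO-GST to UBC9-His (40 nM each) by SAE1 at 12.5 nM used 100 μM ATP in pH 7.5 HEPES buffer with 10 mM MgCl2 and 0.1% BSA. Enzyme and compound were preincubated 15 min at RT and the reaction ran 45 min, with readings after 2 h and overnight.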

SAE1 [2] = biological target: SAE1 (Homo sapiens (Human), UniProt Q9UBE0+Q9UBT2); assay: as above; conditions: read-out: 15 min preincubation HTRF IC50 (μM) Ave, SAE1 12.5 nM, ATP 100 μM
SAE1 (Homo sapiens (Human), UniProt Q9UBE0+Q9UBT2), sequence (Q9UBE0 whole entry): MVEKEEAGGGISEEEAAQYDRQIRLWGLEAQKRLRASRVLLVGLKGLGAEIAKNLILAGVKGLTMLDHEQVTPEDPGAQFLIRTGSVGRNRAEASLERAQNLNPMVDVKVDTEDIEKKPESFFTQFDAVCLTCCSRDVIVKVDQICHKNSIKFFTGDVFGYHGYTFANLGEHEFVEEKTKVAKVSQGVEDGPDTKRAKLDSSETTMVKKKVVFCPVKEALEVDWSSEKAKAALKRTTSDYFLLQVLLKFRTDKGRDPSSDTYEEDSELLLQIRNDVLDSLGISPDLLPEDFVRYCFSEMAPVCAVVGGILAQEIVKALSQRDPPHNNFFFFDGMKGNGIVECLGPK
SAE1 (Homo sapiens (Human), UniProt Q9UBE0+Q9UBT2), sequence (Q9UBT2 whole entry): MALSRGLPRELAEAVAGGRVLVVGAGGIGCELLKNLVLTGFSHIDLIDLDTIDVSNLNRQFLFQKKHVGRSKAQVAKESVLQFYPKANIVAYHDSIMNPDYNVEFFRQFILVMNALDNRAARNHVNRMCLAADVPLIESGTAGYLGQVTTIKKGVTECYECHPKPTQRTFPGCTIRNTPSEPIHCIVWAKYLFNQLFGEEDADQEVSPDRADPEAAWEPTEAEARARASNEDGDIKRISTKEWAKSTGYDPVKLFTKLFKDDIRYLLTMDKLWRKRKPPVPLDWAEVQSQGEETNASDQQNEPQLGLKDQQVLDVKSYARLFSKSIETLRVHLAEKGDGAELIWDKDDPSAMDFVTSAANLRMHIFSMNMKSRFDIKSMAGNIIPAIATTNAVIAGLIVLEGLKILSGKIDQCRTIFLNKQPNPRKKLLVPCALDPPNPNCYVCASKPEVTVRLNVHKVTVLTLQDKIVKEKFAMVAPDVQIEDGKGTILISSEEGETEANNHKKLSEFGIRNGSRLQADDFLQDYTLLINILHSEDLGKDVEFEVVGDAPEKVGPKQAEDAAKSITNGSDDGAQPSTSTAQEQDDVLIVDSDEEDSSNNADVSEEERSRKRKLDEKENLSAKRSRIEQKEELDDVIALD
Procedure, shortened: as §1

[3] = tested on: sumoylation levels (SUMO 2/3 conjugates) in HCT-116 cells; assay: HCT-116 4 Hour Cell Assay (Western, SUMO 2/3 conjugates); format: cell-based; conditions: Homo sapiens, HCT-116, 4 h, 4 h treatment, Anti-Sumo 2-3 immunoblot, read-out: HCT-116 Western 4 h IC50 (μM) Ave
Procedure, shortened: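 IC50 derived from fluorescent immunoblot quantification of SUMO 2/3 conjugate bands, normalized to total protein, after non-reducing SDS-PAGE. Lysis used RIPA plus NEM; exposure was 4 h across 11 concentrations, three-fold serial dilution starting at 25 μM.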

SAE1 (Homo sapiens (Human), UniProt Q9UBT2), sequence (Q9UBE0 whole entry): as the sequence (Q9UBE0 whole entry) above
SAE1 (Homo sapiens (Human), UniProt Q9UBT2), sequence (Q9UBT2 whole entry): as the sequence (Q9UBT2 whole entry) above

## CCOC/C=C/C(=O)N1Cc2sc(C#N)cc2[C@H](c2ccccc2-c2cn(CC)nc2C(F)(F)F)C1 [Example 8, (S, E)-6-(4-Ethoxybut-2-enoyl)-4-(2-(1-ethyl-3-(trifluoromethyl)-1 H-pyrazol-4-yl)phenyl)-4,5,6,7 tetrahydrothieno[2,3-c]pyridine-2-carbonitrile]
SAE1 [1]
  pIC50: 4.97

## CCn1cc(-c2ccccc2[C@@H]2CN(C(=O)/C=C/CN(C)OC)Cc3sc(C#N)cc32)c(C(F)(F)F)n1 [Example 11, (S, E)-4-(2-(1-Ethyl-3-(trifluoromethyl)-1 H-pyrazol-4-yl)phenyl)-6-(4-(methoxy(methyl)amino)but-2-enoyl)-4,5,6,7-tetrahydrothieno[2,3-c]pyridine-2-carbonitrile]
SAE1 [1]
  pIC50: < 4.60

## CCn1cc(-c2ccccc2[C@@H]2CN(C(=O)/C=C/[C@H](C)N(C)C)Cc3sc(C#N)cc32)c(C(F)(F)F)n1 [Example 13, (S)-6-((S, E)-4-(dimethylamino)pent-2-enoyl)-4-(2-(1-ethyl-3-(trifluoromethyl)-1 H-pyrazol-4-yl)phenyl)-4,5,6,7-tetrahydrothieno[2,3-c]pyridine-2-carbonitrile]
SAE1 [1]
  pIC50: 5.21

## CN(C)C/C=C/C(=O)N1Cc2sc(C#N)cc2[C@H](c2ccccc2-c2cn(-c3c(F)cncc3Cl)nc2C(F)(F)F)C1 [Example 156, (S,E)-4-(2-(1-(3-Chloro-5-fluoropyridin-4-yl)-3-(trifluoromethyl)-1H pyrazol-4-yl)phenyl)-6-(4-(dimethylamino)but-2-enoyl)-4,5,6,7-tetrahydrothieno[2,3-c]pyridine-2-carbonitrile]
SAE1 [2]
  IC50: 2.91 µM
[3]
  IC50: 0.349 µM

## CN(C)C/C=C/C(=O)N1Cc2sc(C#N)cc2[C@H](c2ccccc2-c2cn(-c3c(F)cncc3F)nc2C(F)(F)F)C1 [Example 159, (S,E)-4-(2-(1-(3,5-Difluoropyridin-4-yl)-3-(trifluoromethyl)-1H pyrazol-4-yl)phenyl)-6-(4-(dimethylamino)but-2-enoyl)-4,5,6,7-tetrahydrothieno[2,3-c]pyridine-2-carbonitrile]
SAE1 [2]
  IC50: 4.52 µM
[3]
  IC50: 0.128 µM

## CC(C#N)n1cc(-c2ccccc2[C@@H]2CN(C(=O)/C=C/CN(C)C)Cc3sc(C#N)cc32)c(C(F)(F)F)n1 (stereo partly drawn) [Example 165, (4S)-4-(2-(1-(1-Cyanoethyl)-3-(trifluoromethyl)-1H-pyrazol-4-yl)phenyl)-6-((E)-4-(dimethylamino)but-2-enoyl)-4,5,6,7-tetrahydrothieno[2,3-c]pyridine-2-carbonitrile]
SAE1 [2]
  IC50: 3.42 µM
[3]
  IC50: 1.06 µM

## CCn1cc(-c2ccc(F)cc2C2CN(C(=O)/C=C/CN(C)C)Cc3sc(C#N)cc32)c(C(F)(F)F)n1 (stereo not drawn) [Example 180, (E)-6-(4-(Dimethylamino)but-2-enoyl)-4-(2-(1-ethyl-3-(trifluoromethyl)-1 H-pyrazol-4-yl)-5-fluorophenyl)-4,5,6,7-tetrahydrothieno[2,3-c]pyridine-2-carbonitrile]
SAE1 [2]
  IC50: 5.29 µM
[3]
  IC50: 1.15 µM

## CCn1cc(C2=C(C3CN(C(=O)/C=C/CN(C)C)Cc4sc(C#N)cc43)CCCC2)c(C(F)(F)F)n1 (stereo not drawn) [Example 181, (E)-6-(4-(Dimethylamino)but-2-enoyl)-4-(2-(1-ethyl-3-(trifluoromethyl)-1 H-pyrazol-4-yl)cyclohex-1-en-1-yl)-4,5,6,7-tetrahydrothieno[2,3-c]pyridine-2-carbonitrile]
SAE1 [2]
  IC50: 3.16 µM
[3]
  IC50: 0.878 µM

## CCn1cc(-c2c(F)cc(F)cc2C2CN(C(=O)/C=C/CN(C)C)Cc3sc(C#N)cc32)c(C(F)(F)F)n1 (stereo not drawn) [Example 183, (E)-6-(4-(Dimethylamino)but-2-enoyl)-4-(2-(1-ethyl-3-(trifluoromethyl)-1 H-pyrazol-4-yl)-3,5-difluorophenyl)-4,5,6,7-tetrahydrothieno[2,3-c]pyridine-2-carbonitrile]
SAE1 [2]
  IC50: 2.16 µM
[3]
  IC50: 0.321 µM

## CCn1cc(-c2c(Cl)cc(F)cc2C2CN(C(=O)/C=C/CN(C)C)Cc3sc(C#N)cc32)c(C(F)(F)F)n1 (stereo not drawn) [Example 186, (E)-4-(3-Chloro-2-(1-ethyl-3-(trifluoromethyl)-1 H-pyrazol-4-yl)-5-fluorophenyl)-6-(4-(dimethylamino)but-2-enoyl)-4,5,6,7-tetrahydrothieno[2,3-c]pyridine-2-carbonitrile]
SAE1 [2]
  IC50: 6.37 µM
[3]
  IC50: 2.13 µM

## CCn1cc(-c2c(C3CN(C(=O)/C=C/CN(C)C)Cc4sc(C#N)cc43)ccc(O)c2F)c(C(F)(F)F)n1 (stereo not drawn) [Example 189, (E)-6-(4-(Dimethylamino)but-2-enoyl)-4-(2-(1-ethyl-3-(trifluoromethyl)-1 H-pyrazol-4-yl)-3-fluoro-4-hydroxyphenyl)-4,5,6,7-tetrahydrothieno[2,3-c]pyridine-2-carbonitrile]
SAE1 [2]
  IC50: 1.67 µM
[3]
  IC50: 0.46 µM

## CCn1cc(-c2cc(NS(C)(=O)=O)ccc2C2CN(C(=O)/C=C/CN(C)C)Cc3sc(C#N)cc32)c(C(F)(F)F)n1 (stereo not drawn) [Example 193, (E)-N-(4-(2-Cyano-6-(4-(dimethylamino)but-2-enoyl)-4,5,6,7-tetrahydrothieno[2,3-c]pyridin-4-yl)-3-(1-ethyl-3-(trifluoromethyl)-1 H-pyrazol-4-yl)phenyl)methanesulfonamide]
SAE1 [2]
  IC50: 9.08 µM
[3]
  IC50: 8.85 µM

## CCn1cc(-c2c(C3CN(C(=O)/C=C/CN(C)C)Cc4sc(C#N)cc43)csc2C)c(C(F)(F)F)n1 (stereo not drawn) [Example 199, (E)-6-(4-(Dimethylamino)but-2-enoyl)-4-(4-(1-ethyl-3-(trifluoromethyl)-1 H-pyrazol-4-yl)-5-methylthiophen-3-yl)-4,5,6,7-tetrahydrothieno[2,3-c]pyridine-2-carbonitrile]
SAE1 [2]
  IC50: 2.87 µM
[3]
  IC50: 1.26 µM

## CCn1cc(-c2c(C)cccc2C2CN(C(=O)/C=C/CN(C)C)Cc3sc(C#N)cc32)c(C(F)(F)F)n1 (stereo not drawn) [Example 200, (E)-6-(4-(Dimethylamino)but-2-enoyl)-4-(2-(1-ethyl-3-(trifluoromethyl)-1 H-pyrazol-4-yl)-3-methylphenyl)-4,5,6,7-tetrahydrothieno[2,3-c]pyridine-2-carbonitrile]
SAE1 [2]
  IC50: 2.28 µM
[3]
  IC50: 0.891 µM

## CCn1cc(-c2c(Cl)cccc2C2CN(C(=O)/C=C/CN(C)C)Cc3sc(C#N)cc32)c(C(F)(F)F)n1 (stereo not drawn) [Example 201, (E)-4-(3-Chloro-2-(1-ethyl-3-(trifluoromethyl)-1 H-pyrazol-4-yl)phenyl)-6-(4-(dimethylamino)but-2-enoyl)-4,5,6,7-tetrahydrothieno[2,3-c]pyridine-2-carbonitrile]
SAE1 [2]
  IC50: 1.56 µM
[3]
  IC50: 1.46 µM

## CCn1cc(-c2cc(O)ccc2C2CN(C(=O)/C=C/CN(C)C)Cc3sc(C#N)cc32)c(C(F)(F)F)n1 (stereo not drawn) [Example 203, (E)-6-(4-(Dimethylamino)but-2-enoyl)-4-(2-(1-ethyl-3-(trifluoromethyl)-1 H-pyrazol-4-yl)-4-hydroxyphenyl)-4,5,6,7-tetrahydrothieno[2,3-c]pyridine-2-carbonitrile]
SAE1 [2]
  IC50: 4.75 µM
[3]
  IC50: 0.767 µM

## CCn1cc(-c2c(F)cccc2[C@@H]2CN(C(=O)/C=C/CNC34CC(C3)C4)Cc3sc(C#N)cc32)c(C(F)(F)F)n1 [Example 246, (S, E)-6-(4-(bicyclo[1.1.1]pentan-1-ylamino)but-2-enoyl)-4-(2-(1-ethyl-3-(trifluoromethyl)-1 H-pyrazol-4-yl)-3-fluorophenyl)-4,5,6,7-tetrahydrothieno[2,3-c]pyridine-2-carbonitrile]
SAE1 [2]
  IC50: 1.65 µM
[3]
  IC50: 0.483 µM

## CN(C)C/C=C/C(=O)N1Cc2sc(C#N)cc2[C@H](c2cccc(F)c2-c2cn(C)nc2C(F)(F)F)C1 [Example 250, (S)-6-((E)-4-(dimethylamino)but-2-enoyl)-4-((S)-3-fluoro-2-(1-methyl-3-(trifluoromethyl)-1 H-pyrazol-4-yl)phenyl)-4,5,6,7-tetrahydrothieno[2,3-c]pyridine-2-carbonitrile]
SAE1 [2]
  IC50: 0.76 µM
[3]
  IC50: 0.263 µM

## Cc1c(C#N)sc2c1[C@H](c1cccc(F)c1-c1cn(C)nc1C(F)(F)F)CN(C(=O)/C=C/[C@@H]1CCCN1)C2 [Example 251, (S)-4-(3-fluoro-2-(1-methyl-3-(trifluoromethyl)-1 H-pyrazol-4-yl)phenyl)-3-methyl-6-((E)-3-((S)-pyrrolidin-2-yl)acryloyl)-4,5,6,7-tetrahydrothieno[2,3-c]pyridine-2-carbonitrile]
SAE1 [2]
  IC50: 0.11 µM
[3]
  IC50: 0.0822 µM

## CC[C@H]1CNC(/C=C/C(=O)N2Cc3sc(C#N)cc3[C@H](c3cccc(F)c3-c3cn(CC)nc3C(F)(F)F)C2)C1 (stereo partly drawn) [Example 252, (S)-4-((S)-2-(1-ethyl-3-(trifluoromethyl)-1 H-pyrazol-4-yl)-3-fluorophenyl)-6-((E)-3-((2S,4R)-4-ethylpyrrolidin-2-yl)acryloyl)-4,5,6,7-tetrahydrothieno[2,3-c]pyridine-2-carbonitrile]
SAE1 [2]
  IC50: 0.39 µM
[3]
  IC50: 0.288 µM

## CCn1cc(-c2c(F)cccc2[C@@H]2CN(C(=O)/C=C/C3CC(F)(F)CN3)Cc3sc(C#N)cc32)c(C(F)(F)F)n1 (stereo partly drawn) [Example 253, (S)-6-((E)-3-((S)-4,4-difluoropyrrolidin-2-yl)acryloyl)-4-((S)-2-(1-ethyl-3-(trifluoromethyl)-1 H-pyrazol-4-yl)-3-fluorophenyl)-4,5,6,7-tetrahydrothieno[2,3-c]pyridine-2-carbonitrile 2,2,2-trifluoroacetate]
SAE1 [2]
  IC50: 2.92 µM
[3]
  IC50: 0.919 µM
